Read-outs that look alike come from different tables or passages of the source. Marks after values point to notes of the source that are not given here.

The source of these data is patent US12522562B2, “Intestine-specific partial agonists of farnesoid X receptor and uses thereof” (EWHA DrugDesignHouse Co., Ltd., priority 2022, dated 2026).

The nature of series [1]: Pharmacokinetic studies of Example 11 in rats. It is filed as in vivo, Sprague-Dawley rats. To be noted: for detected after (time after oral administration): oral Example 11, 80 mg/kg. As to the method:
To investigate whether Example 11 is indeed an intestine-selective/specific FXR agonist, its pharmacokinetic profile was evaluated. Male Sprague-Dawley rats (7-week old, 240-260 g) were purchased from Orient Bio. Inc. (Seongnam, Korea). Rats were kept in the cage maintained under a controlled environment (temperature of 23±3° C., relative humidity of 50±5%, and 12 h dark-light cycle) for at least 3 days. Rats were fasted overnight before dose administration. The Example 11 was dissolved in a mixture of DMSO, Tween 80, and 0.9% saline solution (v:v:v, 1:1:8) at a concentration of 2.5 mg/mL for intravenous injection (IV). Also, Example 11 was dissolved in corn oil for oral administration (PO). Rats were divided into two groups; IV group and PO group including at least 6 animals per group. After anesthetized with isoflurane, rats were given the dose of 5 mg/kg via IV injection or 80 mg/kg via PO administration by oral gavage into the stomach. Blood samples (approximately 0.25 mL) were obtained by subclavian vein puncture at 0, 0.033, 0.083, 0.167, 0.333, 0.667, 1, 2, 3, 5, 7, 10, and 24 h after IV injection. After PO administration, blood samples were obtained at 0, 0.083, 0.167, 0.333, 0.667, 1, 2, 3, 5, 7, 10, and 24 h post-dose. Subsequently, blood samples were collected in 1.5-mL Eppendorf tube on an ice. The tubes were centrifuged at 13500 rpm for 15 min at 4° C. to separate the plasma fraction. Then, the plasma samples were stored at […] until HPLC analysis. To prepare the samples for HPLC analysis, 5 μL of Example 11 or Example 24 and 5 μL of internal standard, Example 4 were added to 45 μL of plasma. For extraction, 45 μL of MeCN was added to the mixture. Then, the mixture was vortexed for 2 min and centrifuged at 13500 rpm for 15 min at room temperature. The 60 μL of clear supernatant was transferred to an insert. Then, the HPLC auto-injector was programmed to inject 40 μL of the sample to the HPLC system for analysis. The linearity of the calibration curve was obtained by plotting the peak area ratio (area of Example 11 or area of Example 24/area of Example 4). Pharmacokinetic parameters were calculated by non-compartmental analysis of the plasma concentration-time profiles using Winnonlin® Professional version 8.01 software (Pharsight Corporation, Mountain View, CA). Oral bioavailability (F) was calculated by the ratio of the dose-corrected area under the plasma drug concentration-time curve (AUClast) between oral administration and intravenous injection.

Series [2] deals with T1, FXR (Homo sapiens, UniProt Q96RI1).
T1 sequence (Q96RI1 1-486): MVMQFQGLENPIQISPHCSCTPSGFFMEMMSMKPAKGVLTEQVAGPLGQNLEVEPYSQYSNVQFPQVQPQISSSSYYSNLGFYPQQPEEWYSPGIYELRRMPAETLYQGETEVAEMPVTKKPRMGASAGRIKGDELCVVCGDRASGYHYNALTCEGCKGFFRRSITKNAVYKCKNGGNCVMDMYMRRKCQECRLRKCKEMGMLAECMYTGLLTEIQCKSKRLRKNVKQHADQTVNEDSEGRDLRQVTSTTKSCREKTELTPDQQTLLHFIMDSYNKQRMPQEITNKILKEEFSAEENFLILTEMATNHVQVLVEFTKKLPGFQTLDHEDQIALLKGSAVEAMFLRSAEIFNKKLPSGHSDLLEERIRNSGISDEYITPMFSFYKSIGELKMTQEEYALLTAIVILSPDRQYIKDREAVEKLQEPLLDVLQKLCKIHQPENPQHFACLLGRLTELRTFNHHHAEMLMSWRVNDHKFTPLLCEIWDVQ
Nature of the series: PathHunter NHR protein interaction assay, agonist mode (FXR). The note with it: for % max. rel. efficacy: Table 5; for % max. rel. efficacy / Emax: relative to GW4064.
Description: PathHunter® CHO-K1 FXR protein interaction cells were expanded from freezer stocks according to standard procedures. Cells were seeded in a total volume of 20 μL into white walled, 384-well microplates and incubated at 37° C. for the appropriate time prior to testing. Assay media contained charcoal-dextran filtered serum to reduce the level of hormones present. For agonist determination, cells were incubated with sample to induce response. […] For antagonist determination, cells were pre-incubated with antagonist followed by agonist challenge at the EC80 concentration. […] Microplates were read following signal generation with a PerkinElmer Envision™ instrument for chemiluminescent signal detection. Compound activity was analyzed using CBIS data analysis suite (ChemInnovation, CA). For agonist mode assays, percentage activity was calculated using the following formula: % Activity=100%×(mean RLU of test sample−mean RLU of vehicle control)/(mean MAX control ligand−mean RLU of vehicle control).
In this assay, two weakly complementing fragments of the β-galactosidase are expressed within stably transfected cells. The complementing fragments of the β-galactosidase are translationally fused to the C-terminus of a full-length FXR and to the steroid receptor coactivator peptide (SRCP), respectively. When bound by ligand, the FXR will migrate to the nucleus and recruit the SRCP domain, whereby complementation occurs, generating a unit of active β-galactosidase and production of chemiluminescent signal. Thus, measurement of chemiluminescent signal directly reflects FXR-coactivator interaction.

The target of series [3] is T1, FXR. Nature of the series: PathHunter NHR protein interaction assay, antagonist mode (GW4064 challenge at EC80). It is filed as cell-based. To be noted: pre-incubation, then GW4064 at EC80.
In series [4] the test system is patients with non-cirrhotic NASH. To be noted: 100 mg, Phase II; cited from earlier work.
The next series deals with patients with NASH. To be noted: cited from earlier work.
Series [5] has as its target T1, FXR. To be noted: Chianelli et al., J. Med. Chem. 2020; cited from earlier work.
Another series has as its target T2, PPARδ (Homo sapiens, UniProt Q03181).
T2 sequence (Q03181 1-441): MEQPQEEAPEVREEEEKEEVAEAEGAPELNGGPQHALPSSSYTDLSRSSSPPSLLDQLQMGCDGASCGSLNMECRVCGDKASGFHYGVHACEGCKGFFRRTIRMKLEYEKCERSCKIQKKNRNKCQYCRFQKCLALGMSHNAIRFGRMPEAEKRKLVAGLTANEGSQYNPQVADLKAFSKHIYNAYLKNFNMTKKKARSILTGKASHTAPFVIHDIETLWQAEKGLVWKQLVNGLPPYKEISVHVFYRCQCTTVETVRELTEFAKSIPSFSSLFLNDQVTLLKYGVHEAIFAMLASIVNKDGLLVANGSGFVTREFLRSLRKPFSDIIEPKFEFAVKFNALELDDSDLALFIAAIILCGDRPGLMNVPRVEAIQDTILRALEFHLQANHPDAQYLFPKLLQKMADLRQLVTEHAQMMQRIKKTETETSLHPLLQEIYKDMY
Nature of the series: Nuclear receptor selectivity panel (PathHunter NHR protein interaction assay). To be noted: read-out: ref. compd (EC50); reference compound for PPARδ.

For series [6] the following is noted: Fang et al., Nat. Med. 2015; cited from earlier work.
[7] abbreviates: rat, intravenous Example 11, 5 mg/kg.
Where [8] appears, read: Table 4, 5 concentrations, 3-fold dilution from 3.3 μM (GW4064: 10 conc. from 10 μM), one experiment in duplicate, NA = inactive at 3.3 μM.
Setting [9] is: mean ± SEM of two or three independent experiments in duplicate.
Setting [10] is: read-out: % max. rel. efficacy, Table 4, top conc. 3.3 μM, one experiment in duplicate.
Where [11] appears, read: read-out: % max. rel. efficacy, Table 5, mean ± SEM of two or three independent experiments in duplicate.
[12] abbreviates: rat plasma, intravenous dose of Example 11, 5 mg/kg, Example 24 measured as metabolite.
The mark [13] stands for this setting: rat, intravenous dose of Example 11, 5 mg/kg, Example 24 measured as metabolite.
[14] abbreviates: read-out: % max. rel. efficacy, Table 2, top conc. 3.3 μM, one experiment in duplicate.

The term bioavailability denotes dose-corrected exposure relative to a reference, in per cent. Usually AUC(0-t) stands for the area under the concentration-time curve up to a stated or last time point. The low end stands for less exposure, the high end for more exposure. A word on the EC50: it is the concentration that produces a half-maximal response. As for `COC(=O)/C=C/c1cc(F)cc(N(Cc2ccc(-c3ccc(N(C)C)cc3)c(C#N)c2)C(=O)C2CCCCC2)c1` [Example 11, (E)-3-(3-((2-cyano-4′-dimethylaminobiphenyl-4-ylmethyl)cyclohexanecarbonylamino)-5-fluorophenyl)acrylic Acid Methyl Ester], the bioavailability in series [1] (male, Sprague-Dawley, plasma, rat, oral 80 mg/kg vs intravenous 5 mg/kg, dose-corrected AUClast ratio, read-out: F (oral bioavailability)) was found to be 4%. The compound further yielded an AUC(0-t) in series [1] (male, Sprague-Dawley, rat plasma, oral dose of Example 11, 80 mg/kg in corn oil) of 1500 ± 600 ng·h/mL. Also, in series [1] (setting [7]), the “detected in plasma until (time after administration)” value is given as 20 min and the “metabolism after intravenous administration” value is “rapidly metabolized to the corresponding carboxylic acid, Example 24”. In series [1] (rat), the “detected after (time after oral administration)” value is 5 h. At FXR [2] (setting [8]), this compound came in with an EC50 of 900 nM. The “% max. rel. efficacy” value at FXR [2] (setting [9]) was 53 ± 3^c* %. In addition, the Emax on FXR [2] (setting [10]) amounted to 56%. For the same compound, the Emax on FXR [2] (setting [11]) amounted to 53 ± 3%.

As usually defined, the Vss is a proportionality between amount in the body and measured concentration, not a real space. In the case of `CN(C)c1ccc(-c2ccc(CN(C(=O)C3CCCCC3)c3cc(F)cc(/C=C/C(=O)O)c3)cc2C#N)cc1` [Example 24], in series [1] (setting [12]), the AUClast amounted to 1200 ± 100 ng·h/mL and the t1/2 is 14.4 ± 3 min. Also, in series [1] (rat, intravenous Example 11, 5 mg/kg, metabolite), the “detected in plasma until (time after administration)” value was 60 min. Also, in series [1] (setting [13]), the CL was found to be 70 ± 6.7 mL/min/kg and the Vss is 1.4 ± 0.2 L/kg. The “detected after (time after oral administration)” value in series [1] (rat) was 3 h. Moreover, the “% agonistic efficacy” value at FXR [2] (Table 7, 10 μM) worked out at 0%. On FXR [3] (3.3 μM), the “% antagonistic efficacy” value is 7%. In addition, the “% antagonistic efficacy” value at FXR [3] (10 μM) is 26%.

Consider `O=C(O)c1ccnc(N2CC(O)(c3ccc(OCc4c(-c5c(Cl)cccc5Cl)noc4C4CC4)cc3Cl)C2)c1` [cilofexor], for which, in series [4], the “median relative decrease in hepatic steatosis” value is listed as −22.7% and the “moderate to severe pruritus (patients)” value is 14%.

As for `Cn1nc(C(=O)N(Cc2ccccc2)Cc2ccc(C(=O)O)cc2)c2c1-c1cc(Cl)ccc1OC2` [nidufexor], in the series with patients with NASH (Phase II, NASH), the “reduction of LFC (liver fat content)” value is listed as “about 30%”. For the same compound, the rate of pruritus is reported as 54% in the series on patients with NASH (high-dose group) and 30% in the series on patients with NASH (low-dose group). The “maximum efficacy relative to GW4064” value at FXR [5] is listed as 57%.

Consider `COC(=O)/C=C/c1cccc(N(Cc2ccc(-c3ccc(N(C)C)cc3Cl)c(C#N)c2)C(=O)C2CCCCC2)c1` [Example 7, (E)-3-(3-((2′-chloro-2-cyano-4′-dimethylaminobiphenyl-4-ylmethyl)cyclohexane-carbonylamino)phenyl)acrylic acid methyl ester], for which, at FXR [2] (setting [8]), the response was half-maximal at 1200 nM (EC50). Also, the Emax at FXR [2] (setting [10]) was 21%.

`CCOC(=O)/C=C/c1cc(N(Cc2ccc(-c3ccc(N(C)C)cc3)c(C#N)c2)C(=O)C2CCCCC2)ccc1F` [Example 15]: the EC50 at FXR [2] (setting [8]) was 1300 nM. Further, on FXR [2] (setting [10]), the Emax is 23%.

Regarding `CCCc1c(OCCCOc2ccc(OCC(=O)O)cc2)ccc(C(C)=O)c1O` [L-165,041], the EC50 on PPARδ amounted to 6 nM.

Turning to `COC(=O)/C=C/c1cccc(N(Cc2ccc(-c3ccc(N(C)C)cc3)cc2)C(=O)C2CCCCC2)c1` [Fexaramine, reference compound], the EC50 on FXR [2] is 1000 nM; at FXR [2] (Table 2, 5 concentrations, 3-fold dilution from 3.3 μM (GW4064: 10 conc. from 10 μM), one experiment in duplicate, NA = inactive at 3.3 μM) it was 800 nM. Further, the “% max. rel. efficacy” value at FXR [2] (setting [9]) is on record as 29 ± 4^b %. Also, the Emax turned out to be 21% at FXR [2] (setting [14]), 34% on FXR [2] (setting [10]) and 29 ± 4% at FXR [2] (setting [11]). Moreover, the oral bioavailability in series [6] is 12%.

`COC(=O)/C=C/c1cccc(N(Cc2ccc(-c3ccc(N(C)C)cc3F)c(C#N)c2)C(=O)C2CCCCC2)c1` [Example 6, (E)-3-(3-((2-cyano-4′-dimethylamino-2′-fluorobiphenyl-4-ylmethyl)cyclohexanecarbonylamino)phenyl)acrylic Acid Methyl Ester] came in with an EC50 on FXR [2] (setting [8]) of 900 nM. Moreover, the Emax on FXR [2] (setting [10]) is 42%.

At FXR [2] (setting [8]), `COC(=O)/C=C/c1ccc(F)c(N(Cc2ccc(-c3ccc(N(C)C)cc3)c(C#N)c2)C(=O)C2CCCCC2)c1` [Example 20, (E)-3-(3-((2-cyano-4′-dimethylaminobiphenyl-4-ylmethyl)cyclohexanecarbonylamino)-4-fluorophenyl)acrylic acid methyl ester] gave an EC50 of 1500 nM. Further, the Emax on FXR [2] (setting [10]) is 15%.

Consider `CC(C)OC(=O)/C=C/c1cccc(N(Cc2ccc(-c3ccc(N(C)C)cc3)c(C#N)c2)C(=O)C2CCCCC2)c1F` [Example 19, (E)-3-(3-((2-cyano-4′-dimethylaminobiphenyl-4-ylmethyl)cyclohexanecarbonylamino)-2-fluorophenyl)acrylic acid isopropyl ester], for which the Emax on FXR [2] (setting [10]) was determined as 42%.

In the case of `COC(=O)/C=C/c1cccc(N(Cc2ccc(-c3ccc(N(C)C)cc3)c(CO)c2)C(=O)C2CCCCC2)c1` [Example 1, (E)-3-(3-(cyclohexanecarbonyl-(4′-dimethylamino-2-hydroxymethylbiphenyl-4-ylmethyl)amino)phenyl)acrylic acid methyl ester], the Emax at FXR [2] (setting [14]) worked out at 1%.
